Assay results as given in patent publication EP4043466B1, “PRC2 INHIBITORS” (Mirati Therapeutics, Inc., priority 2018, dated 2019).
Each block holds one molecule with its values, some of them ahead of it.

Key:
[1] = test system: Karpas 422 cells; assay: Karpas 422 cell viability, CTG (Cell Titre Glo) assay; format: cell-based, human; conditions: Homo sapiens; Inhibition of proliferation of Karpas 422 cells (EZH2 Y641N); viability measured Day 4, Day 7 or Day 11, time point of the tabulated values not stated
Outline: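 Karpas 422 cells (EZH2 Y641N, DLBCL) plated at 1000 cells/well in RPMI with 20% FBS, exposed to compound 10µM down to 1.5nM in 3-fold steps at 37 °C. Viability by CellTiter-Glo on Days 4, 7 and 11; Day 11 plates re-fed with fresh medium and compound on Day 7. IC50 per time point.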

[2] = test system: PRC2-mediated histone H3 methylation; assay: Tri-Methyl Histone H3 (Lys 27) Sandwich ELISA in Pfeiffer cells: inhibition of PRC2-mediated histone H3 methylation; format: cell-based, human; conditions: Homo sapiens; Inhibition of EZH2-mediated histone H3 trimethylation; Pfeiffer cells (EZH2 A677G), 96 hours incubation
Outline: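 Pfeiffer DLBCL cells (EZH2 A677G mutant) treated with 3-fold serial dilutions, 1µM to 0.15 nM final, for 96 hours at 37°C. Acid (0.4M HCl) histone extracts, neutralized, assayed by H3K27me3 sandwich ELISA with HRP/TMB read at 450 nm.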

[3] = target: purified human, His-tagged PRC2 complex (Homo sapiens, UniProt O75530+Q15910); assay: Hot Spot HMT assay: inhibition of PRC2 enzymatic activity (transfer of tritiated methyl from SAM to core histone, filter binding); format: biochemical; conditions: Inhibition of PRC2-mediated enzymatic activity; 10 nM PRC2 complex, 0.05 mg/ml core histone H3, 1 uM 3H-SAM, 1 hr at 30°C
Chain of purified human, His-tagged PRC2 complex (Q15910 whole entry): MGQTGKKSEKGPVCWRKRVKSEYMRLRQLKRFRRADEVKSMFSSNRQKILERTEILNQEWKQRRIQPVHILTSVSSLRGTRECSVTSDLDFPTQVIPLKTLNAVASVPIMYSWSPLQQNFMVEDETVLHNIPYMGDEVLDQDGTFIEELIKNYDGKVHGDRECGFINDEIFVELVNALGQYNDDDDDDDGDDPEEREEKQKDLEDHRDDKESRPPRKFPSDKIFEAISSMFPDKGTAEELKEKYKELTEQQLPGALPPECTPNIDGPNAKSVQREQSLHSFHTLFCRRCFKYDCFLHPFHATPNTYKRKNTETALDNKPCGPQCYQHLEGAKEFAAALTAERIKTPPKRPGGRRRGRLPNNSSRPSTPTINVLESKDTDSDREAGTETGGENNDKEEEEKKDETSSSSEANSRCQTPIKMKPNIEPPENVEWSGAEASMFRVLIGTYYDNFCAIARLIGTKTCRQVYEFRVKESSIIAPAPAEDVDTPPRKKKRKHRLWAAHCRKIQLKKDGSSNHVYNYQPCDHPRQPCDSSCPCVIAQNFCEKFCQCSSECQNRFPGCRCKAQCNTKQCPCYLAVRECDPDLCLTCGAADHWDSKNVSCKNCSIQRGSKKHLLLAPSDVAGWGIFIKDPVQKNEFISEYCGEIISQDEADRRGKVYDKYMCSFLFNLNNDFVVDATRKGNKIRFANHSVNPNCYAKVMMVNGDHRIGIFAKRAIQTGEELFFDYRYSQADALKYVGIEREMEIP
Chain of purified human, His-tagged PRC2 complex (O75530 whole entry): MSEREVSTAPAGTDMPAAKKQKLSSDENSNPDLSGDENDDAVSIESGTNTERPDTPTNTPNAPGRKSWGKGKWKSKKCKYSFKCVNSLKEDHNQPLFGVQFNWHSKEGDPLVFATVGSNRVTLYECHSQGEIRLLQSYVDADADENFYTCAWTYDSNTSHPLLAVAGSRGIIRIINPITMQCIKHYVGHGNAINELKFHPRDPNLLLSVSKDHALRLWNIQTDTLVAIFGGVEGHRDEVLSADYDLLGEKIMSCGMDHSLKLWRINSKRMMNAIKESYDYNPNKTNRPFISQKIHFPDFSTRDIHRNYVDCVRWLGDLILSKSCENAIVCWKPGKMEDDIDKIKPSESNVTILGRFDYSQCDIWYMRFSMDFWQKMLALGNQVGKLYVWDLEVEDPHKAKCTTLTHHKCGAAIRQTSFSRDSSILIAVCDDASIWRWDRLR
Chain of purified human, His-tagged PRC2 complex (Q15022 whole entry partner): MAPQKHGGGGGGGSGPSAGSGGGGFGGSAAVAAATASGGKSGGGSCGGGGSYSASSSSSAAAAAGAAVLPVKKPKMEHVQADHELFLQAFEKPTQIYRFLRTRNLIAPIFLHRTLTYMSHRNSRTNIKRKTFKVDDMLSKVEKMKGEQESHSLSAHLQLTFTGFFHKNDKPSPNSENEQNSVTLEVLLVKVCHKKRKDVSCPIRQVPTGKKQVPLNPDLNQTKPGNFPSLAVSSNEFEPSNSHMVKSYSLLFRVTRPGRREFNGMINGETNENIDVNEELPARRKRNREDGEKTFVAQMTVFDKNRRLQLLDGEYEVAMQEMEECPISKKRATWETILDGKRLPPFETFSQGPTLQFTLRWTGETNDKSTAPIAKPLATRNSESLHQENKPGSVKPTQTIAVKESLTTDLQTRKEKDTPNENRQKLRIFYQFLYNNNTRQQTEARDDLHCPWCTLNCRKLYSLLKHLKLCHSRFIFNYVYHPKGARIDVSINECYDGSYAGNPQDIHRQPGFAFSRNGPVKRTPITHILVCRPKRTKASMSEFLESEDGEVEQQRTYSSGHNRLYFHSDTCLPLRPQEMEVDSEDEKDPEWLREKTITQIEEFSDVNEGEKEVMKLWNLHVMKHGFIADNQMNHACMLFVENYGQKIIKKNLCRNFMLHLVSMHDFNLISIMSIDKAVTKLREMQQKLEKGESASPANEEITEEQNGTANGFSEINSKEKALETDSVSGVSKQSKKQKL
Chain of purified human, His-tagged PRC2 complex (Q6ZN18 whole entry partner): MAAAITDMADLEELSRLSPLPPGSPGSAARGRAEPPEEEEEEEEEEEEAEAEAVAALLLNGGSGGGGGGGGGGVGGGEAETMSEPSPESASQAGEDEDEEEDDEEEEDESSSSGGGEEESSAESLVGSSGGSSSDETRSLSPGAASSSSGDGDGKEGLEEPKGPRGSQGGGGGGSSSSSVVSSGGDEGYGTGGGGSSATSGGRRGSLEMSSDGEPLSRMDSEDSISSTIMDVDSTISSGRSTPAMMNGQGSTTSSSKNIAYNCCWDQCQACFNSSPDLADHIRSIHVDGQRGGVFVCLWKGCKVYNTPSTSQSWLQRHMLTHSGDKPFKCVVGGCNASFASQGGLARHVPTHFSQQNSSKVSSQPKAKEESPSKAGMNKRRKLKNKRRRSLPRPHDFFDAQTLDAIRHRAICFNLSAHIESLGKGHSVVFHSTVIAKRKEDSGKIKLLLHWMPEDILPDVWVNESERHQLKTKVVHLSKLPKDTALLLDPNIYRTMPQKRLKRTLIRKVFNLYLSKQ
Chain of purified human, His-tagged PRC2 complex (Q09028 whole entry partner): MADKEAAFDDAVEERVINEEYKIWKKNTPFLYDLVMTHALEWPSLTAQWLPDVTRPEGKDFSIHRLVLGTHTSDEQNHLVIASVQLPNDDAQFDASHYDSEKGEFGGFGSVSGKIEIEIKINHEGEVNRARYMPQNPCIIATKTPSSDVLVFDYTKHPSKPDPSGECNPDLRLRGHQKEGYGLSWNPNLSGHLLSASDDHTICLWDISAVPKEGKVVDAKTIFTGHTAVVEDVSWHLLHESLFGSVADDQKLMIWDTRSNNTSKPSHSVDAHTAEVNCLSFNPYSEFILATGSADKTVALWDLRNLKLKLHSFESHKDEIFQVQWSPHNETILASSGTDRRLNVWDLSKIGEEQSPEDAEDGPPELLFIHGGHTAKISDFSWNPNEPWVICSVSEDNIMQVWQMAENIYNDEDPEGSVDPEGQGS
Outline: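 Five-subunit complex (His-EZH2, Flag-EED, His-SUZ12, His-AEBP2, His-RbAp48) at 10 nM with 0.05 mg/ml core histone H3, pH 8 Tris buffer, 1% DMSO; 20 min compound pre-incubation at 30°C. Started with 1 uM [3H]-SAM, 1 hr at 30°C; tritiated H3 counted by scintillation. Compounds diluted from 1.0 µM top concentration.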

SMILES: CN1CCOCC1c1ccc(-c2cnc(NCc3c(F)ccc4c3CCO4)n3cc(C#N)nc23)cc1 (stereo not drawn) [Example 227, 5-(((5-fluoro-2,3-dihydrobenzofuran-4-yl)methyl)amino)-8-(4-(4-methylmorpholin-3-yl)phenyl)imidazo[1,2-c]pyrimidine-2-carbonitrile]
IC50 [1]: ≤ 250 nM
IC50 [2]: 100 to 500 nM
IC50 [3]: < 100 nM

SMILES: CN1CCN(C(=O)c2cc(-c3cnc(NCc4c(F)ccc5c4CCO5)n4cc(C#N)nc34)n(C)n2)CC1 [Example 229, 5-(((5-fluoro-2,3-dihydrobenzofuran-4-yl)methyl)amino)-8-(1-methyl-3-(4-methylpiperazine-1-carbonyl)-1H-pyrazol-5-yl)imidazo[1,2-c]pyrimidine-2-carbonitrile]
IC50 [1]: ≤ 250 nM
IC50 [2]: ≤ 100 nM
IC50 [3]: < 100 nM

SMILES: Cc1c(-c2cnc(NCc3c(F)ccc4c3CCO4)n3cc(C#N)nc23)cnc(CN(C)C)c1F [Example 233, 8-(6-((dimethylamino)methyl)-5-fluoro-4-methylpyridin-3-yl)-5-(((5-fluoro-2,3-dihydrobenzofuran-4-yl)methyl)amino)imidazo[1,2-c]pyrimidine-2-carbonitrile]
IC50 [1]: ≤ 250 nM
IC50 [2]: ≤ 100 nM
IC50 [3]: < 100 nM

SMILES: N#Cc1cn2c(NCc3c(F)ccc4c3CCO4)ncc(-c3cnn(CC4CCOC4)c3)c2n1 (stereo not drawn) [compound 154]
IC50 [1]: 250 to 500 nM
IC50 [2]: 100 to 500 nM
IC50 [3]: 100 to 500 nM

Now from value to molecule:

IC50 [1]: ≤ 250 nM
IC50 [2]: 100 to 500 nM
IC50 [3]: 100 to 500 nM
SMILES: N#Cc1cn2c(NCc3c(F)ccc4c3CCO4)ncc(-c3ccc(C4CCN4)cc3)c2n1 (stereo not drawn) [Example 226, 8-(4-(azetidin-2-yl)phenyl)-5-(((5-fluoro-2,3-dihydrobenzofuran-4-yl)methyl)amino)imidazo[1,2-c]pyrimidine-2-carbonitrile]

IC50 [1]: ≤ 250 nM
IC50 [2]: ≤ 100 nM
IC50 [3]: < 100 nM
SMILES: CN(C)CCn1nccc1-c1cnc(NCc2c(F)ccc3c2CCO3)n2cc(C#N)nc12 [Example 230, 8-(1-(2-(dimethylamino)ethyl)-1H-pyrazol-5-yl)-5-(((5-fluoro-2,3-dihydrobenzofuran-4-yl)methyl)amino)imidazo[1,2-c]pyrimidine-2-carbonitrile]
